Converted amounts (≈) assume the structure as drawn. Read-outs that look alike come from different tables or passages of the source.
What was measured:
human (hACC2) ACC2 = human (hACC2) ACC2 (Homo sapiens, UniProt O00763); test: In vitro Acetyl-CoA Carboxylase (ACC) inhibition assay (ADP-Glo), hACC2; type: biochemical
Procedure: The detailed procedure is as follows. […] 10 μL ADP glo reagent was added. […] 20 μL kinase detection reagent was added.
“NA” stands for “not assayed.”

fungal (fACC2) ACC2 = fungal (fACC2) ACC2 (UniProt Q00955); conditions: read-out: fACC2 IC50; fungal ACC2, ADP-Glo
fungal (fACC2) ACC2, sequence (Q00955 whole entry): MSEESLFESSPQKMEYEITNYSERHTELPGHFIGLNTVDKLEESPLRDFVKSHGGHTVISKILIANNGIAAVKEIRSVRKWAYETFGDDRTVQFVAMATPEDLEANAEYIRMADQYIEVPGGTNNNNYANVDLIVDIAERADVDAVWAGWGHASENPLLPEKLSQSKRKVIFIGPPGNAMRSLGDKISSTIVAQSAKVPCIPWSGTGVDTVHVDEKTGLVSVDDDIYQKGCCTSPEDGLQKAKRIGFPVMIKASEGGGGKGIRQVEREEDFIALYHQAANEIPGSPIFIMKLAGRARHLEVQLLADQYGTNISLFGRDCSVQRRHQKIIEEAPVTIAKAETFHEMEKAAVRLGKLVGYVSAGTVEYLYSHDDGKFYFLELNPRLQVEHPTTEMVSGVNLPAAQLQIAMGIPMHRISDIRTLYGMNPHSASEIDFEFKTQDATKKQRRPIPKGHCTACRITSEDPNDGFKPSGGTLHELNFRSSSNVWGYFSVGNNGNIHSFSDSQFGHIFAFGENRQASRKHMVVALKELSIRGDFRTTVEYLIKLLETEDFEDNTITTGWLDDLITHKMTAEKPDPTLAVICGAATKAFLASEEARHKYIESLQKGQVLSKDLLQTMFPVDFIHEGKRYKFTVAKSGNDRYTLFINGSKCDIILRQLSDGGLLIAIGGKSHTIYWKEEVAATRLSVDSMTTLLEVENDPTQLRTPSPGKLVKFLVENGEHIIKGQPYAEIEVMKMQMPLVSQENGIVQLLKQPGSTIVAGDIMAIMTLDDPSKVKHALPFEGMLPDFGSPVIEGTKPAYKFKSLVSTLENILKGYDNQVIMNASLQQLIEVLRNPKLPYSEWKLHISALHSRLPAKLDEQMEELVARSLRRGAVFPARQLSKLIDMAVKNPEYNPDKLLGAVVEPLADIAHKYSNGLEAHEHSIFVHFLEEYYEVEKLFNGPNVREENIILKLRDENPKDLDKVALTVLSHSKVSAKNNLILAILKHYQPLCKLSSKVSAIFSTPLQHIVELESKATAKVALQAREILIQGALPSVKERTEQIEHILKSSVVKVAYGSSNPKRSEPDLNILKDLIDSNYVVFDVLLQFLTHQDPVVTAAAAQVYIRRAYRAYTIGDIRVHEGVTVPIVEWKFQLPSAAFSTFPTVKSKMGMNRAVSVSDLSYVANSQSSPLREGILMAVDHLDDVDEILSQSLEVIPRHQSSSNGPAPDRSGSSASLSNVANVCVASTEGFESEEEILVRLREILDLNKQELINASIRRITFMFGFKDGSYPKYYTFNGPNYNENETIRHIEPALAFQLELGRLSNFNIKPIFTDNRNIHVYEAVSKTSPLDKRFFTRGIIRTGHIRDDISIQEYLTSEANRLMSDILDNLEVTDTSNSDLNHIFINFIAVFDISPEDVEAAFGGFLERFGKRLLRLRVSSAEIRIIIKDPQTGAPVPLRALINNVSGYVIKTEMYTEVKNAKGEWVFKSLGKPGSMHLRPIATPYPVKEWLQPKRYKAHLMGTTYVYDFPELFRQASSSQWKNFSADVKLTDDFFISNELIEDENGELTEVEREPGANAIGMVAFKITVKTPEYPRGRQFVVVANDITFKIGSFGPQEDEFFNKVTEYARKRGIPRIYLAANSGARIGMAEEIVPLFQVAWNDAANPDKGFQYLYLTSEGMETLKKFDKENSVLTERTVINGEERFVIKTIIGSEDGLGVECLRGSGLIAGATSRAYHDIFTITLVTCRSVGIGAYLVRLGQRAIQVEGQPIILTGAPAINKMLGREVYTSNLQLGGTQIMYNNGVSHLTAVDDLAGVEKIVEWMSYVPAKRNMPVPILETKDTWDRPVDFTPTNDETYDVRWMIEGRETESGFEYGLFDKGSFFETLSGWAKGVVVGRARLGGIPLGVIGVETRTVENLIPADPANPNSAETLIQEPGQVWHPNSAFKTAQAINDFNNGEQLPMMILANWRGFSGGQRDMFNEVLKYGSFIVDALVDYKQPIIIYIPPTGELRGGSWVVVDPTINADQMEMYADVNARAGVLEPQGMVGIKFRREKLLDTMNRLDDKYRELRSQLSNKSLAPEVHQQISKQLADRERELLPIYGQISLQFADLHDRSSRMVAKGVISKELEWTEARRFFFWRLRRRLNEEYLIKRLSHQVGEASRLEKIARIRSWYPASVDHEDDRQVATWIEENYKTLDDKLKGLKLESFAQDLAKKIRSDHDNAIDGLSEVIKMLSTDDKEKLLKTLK
Procedure: An exemplary procedure for the in vitro ACC inhibition assay, which can be used to determine the inhibitory action of compounds of the invention toward either human (hACC2) or fungal (fACC2) ACC2, follows. The ADP-Glo™ Kinase Assay kit from Promega was used. The ADP-Glo™ Kinase Assay is a luminescent ADP detection assay to measure enzymatic activity by quantifying the amount of ADP produced during an enzyme reaction. The assay is performed in two steps; first, after the enzyme reaction, an equal volume of ADP-Glo™ Reagent is added to terminate the reaction and deplete the remaining ATP. Second, the Kinase Detection Reagent is added to simultaneously convert ADP to ATP and allow the newly synthesized ATP to be measured using a luciferase/luciferin reaction. Luminescence can be correlated to ADP concentrations by using an ATP-to-ADP conversion curve. The detailed procedure is as follows. 50 μL of the compound being tested (600 μM in DMSO) was added to a 384-well dilution plate. The compound was diluted 1:3 in succession in DMSO for each row for 11 wells. 0.5 μL ACC2 working solution was added to 384-well white Optiplate assay plate. 0.5 μL diluted compound solution in each column from step 2 was added to assay plate, each row containing 2 replicates. […] The plates were incubated at room temperature for 15 minutes. 5 μL substrate working solution was added to each well to initiate reaction. Final ACC2 reaction concentrations consist of: 5 nM ACC2, 20 μM ATP, 20 μM acetyl-CoA, 12 mM NaHCO3, 0.01% Brij35, 2 mM DTT, 5% DMSO, test compound concentrations: 30 μM, 10 μM, 3.33 μM, 1.11 μM, 0.37 μM, 0.123 μM, 0.0411 μM, 0.0137 μM, 0.00457 μM, 0.00152 μM, and 0.00051 μM. Plates were incubated at room temperature for 60 minutes. 10 μL ADP glo reagent was added. Plates were incubated at room temperature for 40 minutes. 20 μL kinase detection reagent was added. Plates were incubated at room temperature for 40 minutes, and then read on a Perkin Elmer EnVision 2104 plate reader for luminescence as Relative Light Units (RLU).
Data for each concentration, as well as the positive and negative controls were averaged, and the standard deviation calculated. Percent inhibition was calculated by the formula: 100×(average negative control−compound)/(average negative control−average positive control). The IC50 for each compound was calculated by fitting the data with a non-linear regression equation: Y=Bottom+(Top-Bottom)/(1+10^((Log IC50−X)*Hill Slope)), where X is the log of compound concentration and Y is percent inhibition.
Compounds having an activity designated as “AA” provided an IC50 0.0006-0.003 μM; provided an “A” provided an IC50 0.003-0.01 μM; compounds having an activity designated as “B” provided an IC50 0.01-0.04 μM; and compounds having an activity designated as “C” provided an IC50>0.04 μM IC50. “NA” stands for “not assayed.”

[1] = test system: Fusarium moniliforme (Fm); test: Growth inhibition assay of fungal pathogens; type: cell-based; conditions: Fusarium verticillioides, 48 h, read-out: Concentration at 90% Inhibition Fm
Summary of the method: (§1)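 OD600 (blank-subtracted) plus visual scoring at 48 h, vs 2% DMSO ctrl → % inhibition. Final cpd 50/10/2 or 2/0.4/0.08 ppm. Fm/Bc/Dm spores in 17% V8 broth; Rs as 1.5 mm plugs in ¼ PDB.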

Septoria tritici (St) = test: Growth inhibition assay of fungal pathogens; type: cell-based; conditions: for IC90: Zymoseptoria tritici, read-out: Concentration at 90% Inhibition St
Summary of the method: (§2)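 Percent growth inhibition was derived from 48 h OD600 and visual scores relative to 2% DMSO, with blank background subtraction. Fungi were grown from spores in 17% V8 liquid medium, R. solani from 1.5 mm plugs in ¼ PDB, with compound at final 50/10/2 or 2/0.4/0.08 ppm.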

Diplodia maydis (Dm) = test: Growth inhibition assay of fungal pathogens; type: cell-based; conditions: Stenocarpella maydis, 48 h, read-out: Concentration at 90% Inhibition Dm
Summary of the method: as §1

Rhizoctonia solani (Rs) = test: Growth inhibition assay of fungal pathogens; type: cell-based; conditions: 48 h, read-out: Concentration at 90% Inhibition Rs
Summary of the method: as §1

[2] = test system: Phytophthora capsici (Pc); test: Growth inhibition assay of fungal pathogens; type: cell-based; conditions: for IC90: Phytophthora capsici, read-out: Concentration at 90% Inhibition Pc
Summary of the method: as §2

Botrtyis cinerea (Bc) = test: Growth inhibition assay of fungal pathogens; type: cell-based; conditions: 48 h, read-out: Concentration at 90% Inhibition Bc
Summary of the method: as §1

[3] = test system: Fusarium virguliforme (Fv); test: Growth inhibition assay of fungal pathogens; type: cell-based; conditions: 48 h
Summary of the method: as §2

[4] = test system: Collectotrichum graminicola (Cg); test: Growth inhibition assay of fungal pathogens; type: cell-based; conditions: 48 h, read-out: Concentration at 90% Inhibition Cg
Summary of the method: as §2

C. krusei ATCC 6258 = test: Anti-Fungal (Candida) Activity Assay, broth microtiter MIC; type: cell-based; conditions: Pichia kudriavzevii, read-out: MIC C. krusei ATCC 6258
Summary of the method: (§3)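 Following CLSI M27-A3 broth microdilution, direct colony suspensions in RPMI 1640+MOPS were challenged with compounds. MICs were read visually against the growth control after 48 h.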

[5] = test system: C. parapsilosis ATCC 22019; test: as above; type: cell-based; conditions: Lodderomyces parapsilosis, read-out: MIC C. parapsilosis ATCC 22019
Summary of the method: as §3

C. albicans ATCC 90028 = test: as above; type: cell-based; conditions: read-out: MIC C. albicans ATCC 90028
Summary of the method: as §3

[6] = read-out: Concentration at 90% Inhibition Fv, Table 4b, 48 hours
[7] = Table 4b, 48 hours, read-out: Concentration at 90% Inhibition Fv
[8] = ATCC6258, 3 replicates, MIC recorded at 48 h
[9] = ATCC22019, 3 replicates, MIC recorded at 48 h
[10] = ATCC90028, 3 replicates, MIC recorded at 48 h
[11] = Table 4a, 48 hours, read-out: Concentration at 90% Inhibition Fv

human (hACC2) ACC2, sequence (O00763 whole entry): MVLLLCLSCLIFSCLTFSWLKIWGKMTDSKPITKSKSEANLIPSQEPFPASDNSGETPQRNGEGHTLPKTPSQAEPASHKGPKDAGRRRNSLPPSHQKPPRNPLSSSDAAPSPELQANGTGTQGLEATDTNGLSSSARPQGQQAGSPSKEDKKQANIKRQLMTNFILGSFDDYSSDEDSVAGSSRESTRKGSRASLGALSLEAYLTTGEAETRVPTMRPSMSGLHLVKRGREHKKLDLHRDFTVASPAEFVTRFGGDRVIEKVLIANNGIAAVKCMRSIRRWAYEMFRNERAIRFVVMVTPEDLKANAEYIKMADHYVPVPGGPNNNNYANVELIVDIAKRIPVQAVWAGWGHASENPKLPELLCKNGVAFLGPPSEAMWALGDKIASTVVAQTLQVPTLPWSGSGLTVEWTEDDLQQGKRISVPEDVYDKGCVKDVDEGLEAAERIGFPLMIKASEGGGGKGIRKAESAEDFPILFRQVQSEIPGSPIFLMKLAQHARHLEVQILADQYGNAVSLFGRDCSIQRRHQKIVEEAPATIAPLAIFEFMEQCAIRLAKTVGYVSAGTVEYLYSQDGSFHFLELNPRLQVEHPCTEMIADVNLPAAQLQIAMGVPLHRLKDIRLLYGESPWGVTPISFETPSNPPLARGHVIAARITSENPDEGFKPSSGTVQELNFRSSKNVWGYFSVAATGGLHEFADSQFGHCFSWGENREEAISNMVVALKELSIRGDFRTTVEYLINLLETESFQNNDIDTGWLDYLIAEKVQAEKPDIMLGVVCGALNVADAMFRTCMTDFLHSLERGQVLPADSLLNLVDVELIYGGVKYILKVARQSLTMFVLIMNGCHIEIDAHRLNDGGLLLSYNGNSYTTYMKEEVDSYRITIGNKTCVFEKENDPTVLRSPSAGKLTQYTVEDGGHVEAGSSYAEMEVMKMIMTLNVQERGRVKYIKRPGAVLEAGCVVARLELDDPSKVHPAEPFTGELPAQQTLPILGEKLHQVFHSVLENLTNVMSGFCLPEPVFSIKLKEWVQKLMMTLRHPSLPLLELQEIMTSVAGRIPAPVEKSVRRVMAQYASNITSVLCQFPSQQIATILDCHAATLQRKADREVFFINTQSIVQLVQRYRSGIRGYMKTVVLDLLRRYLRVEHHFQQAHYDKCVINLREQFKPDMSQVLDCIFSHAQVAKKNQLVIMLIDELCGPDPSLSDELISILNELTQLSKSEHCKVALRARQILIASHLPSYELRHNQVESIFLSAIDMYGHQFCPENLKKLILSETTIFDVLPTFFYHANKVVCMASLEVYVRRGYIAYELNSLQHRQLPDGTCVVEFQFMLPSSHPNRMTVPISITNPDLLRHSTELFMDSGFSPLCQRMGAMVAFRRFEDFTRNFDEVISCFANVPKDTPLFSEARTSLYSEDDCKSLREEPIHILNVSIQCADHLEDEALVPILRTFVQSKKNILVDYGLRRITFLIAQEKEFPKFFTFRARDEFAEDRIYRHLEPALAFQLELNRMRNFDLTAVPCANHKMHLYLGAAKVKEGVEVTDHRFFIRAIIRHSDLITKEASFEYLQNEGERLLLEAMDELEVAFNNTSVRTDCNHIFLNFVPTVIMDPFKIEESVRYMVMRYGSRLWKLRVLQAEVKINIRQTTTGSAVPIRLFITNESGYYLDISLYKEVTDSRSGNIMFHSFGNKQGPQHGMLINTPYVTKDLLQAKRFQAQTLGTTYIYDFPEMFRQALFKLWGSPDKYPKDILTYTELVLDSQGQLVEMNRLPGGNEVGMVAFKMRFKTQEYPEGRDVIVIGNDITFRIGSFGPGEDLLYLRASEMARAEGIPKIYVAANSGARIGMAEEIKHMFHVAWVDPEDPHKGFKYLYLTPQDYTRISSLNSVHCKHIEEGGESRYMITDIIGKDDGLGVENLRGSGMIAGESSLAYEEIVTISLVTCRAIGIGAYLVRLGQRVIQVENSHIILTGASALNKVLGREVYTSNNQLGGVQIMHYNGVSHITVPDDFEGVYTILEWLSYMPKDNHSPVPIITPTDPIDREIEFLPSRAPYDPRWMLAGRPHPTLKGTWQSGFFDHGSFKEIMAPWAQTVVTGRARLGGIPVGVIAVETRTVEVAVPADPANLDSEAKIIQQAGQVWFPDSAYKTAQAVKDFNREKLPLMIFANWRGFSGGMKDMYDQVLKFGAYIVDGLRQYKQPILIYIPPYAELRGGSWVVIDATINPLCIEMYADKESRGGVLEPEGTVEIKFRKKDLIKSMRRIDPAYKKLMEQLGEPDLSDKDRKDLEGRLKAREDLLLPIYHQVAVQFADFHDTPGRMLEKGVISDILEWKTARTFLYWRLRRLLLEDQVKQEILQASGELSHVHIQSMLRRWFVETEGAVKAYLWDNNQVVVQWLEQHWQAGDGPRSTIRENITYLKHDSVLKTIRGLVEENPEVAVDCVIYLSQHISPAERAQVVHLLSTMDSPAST

| Compound | IC50 (human (hACC2) ACC2) [nM] | IC50 (fungal (fACC2) ACC2) [nM] | IC90 (Diplodia maydis (Dm); Table 4b) [µg/mL] | IC90 (Rhizoctonia solani (Rs); Table 4b) [µg/mL] | IC90 (Botrtyis cinerea (Bc); Table 4b) [µg/mL] | IC90 ([4]; Table 4b) [µg/mL] | IC90 ([1]; Table 4b, 48 hours) [µg/mL] | IC90 (Septoria tritici (St); Table 4b, 48 hours) [µg/mL] | IC90 ([2]; Table 4b, 48 hours) [µg/mL] | IC90 [3, 7] [µg/mL] | also measured |
| --- | --- | --- | --- | --- | --- | --- | --- | --- | --- | --- | --- |
| COc1ccc(F)cc1[C@H](Cn1c(=O)n(C(C)(C)C(=O)NC(C)C)c(=O)c2c(C)c(-n3cccn3)sc21)OCCC#N [Compound I-78, (R)-2-(1-(2-(2-cyanoethoxy)-2-(5-fluoro-2-methoxyphenyl)ethyl)-5-methyl-2,4-dioxo-6-(1H-pyrazol-1-yl)-1,4-dihydrothieno[2,3-d]pyrimidin-3(2H)-yl)-N-isopropyl-2-methylpropanamide] | 10 to 40 | 0.6 to 3 | > 50 | 10 (≈ 16.8 µM) | 10 (≈ 16.8 µM) | > 50 | – | – | – | – | IC90 [1]: 10 µg/mL (≈ 16.8 µM); IC90 (Septoria tritici (St); 48 h, Table 4b): > 50 µg/mL; IC90 ([2]; 48 h, Table 4b): > 50 µg/mL; IC90 [3, 6]: > 50 µg/mL |
| COCCO[C@@H](Cn1c(=O)n([C@@H](C)C(=O)N2CCCC2)c(=O)c2c(C)c(-n3cccn3)sc21)c1cc(F)ccc1OC [Compound I-75, 1-((R)-2-(5-fluoro-2-methoxyphenyl)-2-(2-methoxyethoxy)ethyl)-5-methyl-3-((S)-1-oxo-1-(pyrrolidin-1-yl)propan-2-yl)-6-(1H-pyrazol-1-yl)thieno[2,3-d]pyrimidine-2,4(1H,3H)-dione] | 3 to 10 | 0.6 to 3 | 2 (≈ 3.34 µM) | 0.08 (≈ 0.133 µM) | 2 (≈ 3.34 µM) | 2 (≈ 3.34 µM) | 0.08 (≈ 0.133 µM) | > 50 | > 50 | 0.4 (≈ 0.667 µM) | – |
| COCCO[C@@H](Cn1c(=O)n(C(C)(C)C(=O)N2CCCC2)c(=O)c2c(C)c(-n3cccn3)sc21)c1cc(F)ccc1OC [Compound I-44, (R)-1-(2-(5-fluoro-2-methoxyphenyl)-2-(2-methoxy-ethoxy)ethyl)-5-methyl-3-(2-methyl-1-oxo-1-(pyrrolidin-1-yl)propan-2-yl)-6-(1H-pyrazol-1-yl)thieno[2,3-d]pyrimidine-2,4(1H,3H)-dione] | > 40 | 3 to 10 | > 50 | > 50 | > 50 | > 50 | 10 (≈ 16.3 µM) | > 50 | > 50 | 10 (≈ 16.3 µM) | – |
| COc1ccccc1[C@H](Cn1c(=O)n(C(C)(C)C(=O)N2CCCC2)c(=O)c2c(C)c(-n3cccn3)sc21)OC1CCOCC1 [Compound I-12, (R)-1-(2-(2-methoxyphenyl)-2-((tetrahydro-2H-pyran-4-yl)oxy)ethyl)-5-methyl-3-(2-methyl-1-oxo-1-(pyrrolidin-1-yl)propan-2-yl)-6-(1H-pyrazol-1-yl)thieno[2,3-d]pyrimidine-2,4(1H,3H)-dione] | 3 to 10 | – | 10 (≈ 16.1 µM) | 2 (≈ 3.22 µM) | 10 (≈ 16.1 µM) | 2 (≈ 3.22 µM) | 0.4 (≈ 0.643 µM) | – | – | 10 (≈ 16.1 µM) | MIC (C. krusei ATCC 6258; [8]): 2.1 to 4 µg/mL (≈ 3.38 to 6.43 µM); MIC [5, 9]: > 4.1 µg/mL; MIC (C. albicans ATCC 90028; [10]): 2.1 to 4 µg/mL (≈ 3.38 to 6.43 µM); IC90 ([1]; Table 4a, 48 hours): 0.4 µg/mL (≈ 0.643 µM); Concentration at 90% Inhibition St (Septoria tritici (St); Table 4b, 48 hours): D (“D” provided a compound concentration of >50 ppm at 90% inhibition of fungal pathogens); IC90 (Septoria tritici (St); Table 4a, 48 hours): > 50 µg/mL; IC90 (Diplodia maydis (Dm); Table 4a): > 50 µg/mL; IC90 (Rhizoctonia solani (Rs); Table 4a): 2 µg/mL (≈ 3.22 µM); IC90 ([2]; Table 4a, 48 hours): > 50 µg/mL; Concentration at 90% Inhibition Pc ([2]; Table 4b, 48 hours): D (“D” provided a compound concentration of >50 ppm at 90% inhibition of fungal pathogens); IC90 (Botrtyis cinerea (Bc); Table 4a): > 50 µg/mL; IC90 [3, 11]: > 50 µg/mL; IC90 ([4]; Table 4a): 10 µg/mL (≈ 16.1 µM) |
| COc1ccc(F)cc1[C@@H](O)Cn1c(=O)n(C(C)(C)C(=O)NC(C)C)c(=O)c2c(C)c(-n3cccn3)sc21 [Compound I-86, (R)-2-(1-(2-(5-fluoro-2-methoxyphenyl)-2-hydroxyethyl)-5-methyl-2,4-dioxo-6-(1H-pyrazol-1-yl)-1,4-dihydrothieno[2,3-d]pyrimidin-3(2H)-yl)-N-isopropyl-2-methylpropanamide] | 3 to 10 | – | 10 (≈ 18.4 µM) | 0.4 (≈ 0.736 µM) | 2 (≈ 3.68 µM) | 2 (≈ 3.68 µM) | – | – | – | – | MIC (C. krusei ATCC 6258; ATCC6258, 48 h): 1.1 to 2 µg/mL (≈ 2.02 to 3.68 µM); MIC ([5]; ATCC22019, 48 h): 0.25 to 1 µg/mL (≈ 0.46 to 1.84 µM); MIC (C. albicans ATCC 90028; ATCC90028, 48 h): 1.1 to 2 µg/mL (≈ 2.02 to 3.68 µM); IC90 [1]: 0.4 µg/mL (≈ 0.736 µM); IC90 (Septoria tritici (St); 48 h, Table 4b): > 50 µg/mL; IC90 ([2]; 48 h, Table 4b): > 50 µg/mL; IC90 [3, 6]: 0.4 µg/mL (≈ 0.736 µM) |
| COc1ccc(F)cc1[C@H](Cn1c(=O)n(C(C)(C)C(N)=O)c(=O)c2c(C)c(-n3cccn3)sc21)OC1CCC(=O)CC1 [Compound I-25, (R)-2-(1-(2-(5-fluoro-2-methoxyphenyl)-2-((4-oxocyclo-hexyl)oxy)ethyl)-5-methyl-2,4-dioxo-6-(1H-pyrazol-1-yl)-1,4-dihydro-thieno[2,3-d]pyrimidin-3(2H)-yl)-2-methylpropanamide] | 3 to 10 | – | > 50 | > 50 | 10 (≈ 16.7 µM) | > 50 | 2 (≈ 3.35 µM) | – | – | > 50 | MIC (C. krusei ATCC 6258; [8]): 0.25 to 1 µg/mL (≈ 0.418 to 1.67 µM); MIC [5, 9]: 1.1 to 2 µg/mL (≈ 1.84 to 3.35 µM); MIC (C. albicans ATCC 90028; [10]): 1.1 to 2 µg/mL (≈ 1.84 to 3.35 µM); IC90 ([1]; Table 4a, 48 hours): 10 µg/mL (≈ 16.7 µM); Concentration at 90% Inhibition St (Septoria tritici (St); Table 4b, 48 hours): D (“D” provided a compound concentration of >50 ppm at 90% inhibition of fungal pathogens); IC90 (Septoria tritici (St); Table 4a, 48 hours): > 50 µg/mL; IC90 (Diplodia maydis (Dm); Table 4a): > 50 µg/mL; IC90 (Rhizoctonia solani (Rs); Table 4a): > 50 µg/mL; IC90 ([2]; Table 4a, 48 hours): > 50 µg/mL; Concentration at 90% Inhibition Pc ([2]; Table 4b, 48 hours): D (“D” provided a compound concentration of >50 ppm at 90% inhibition of fungal pathogens); IC90 (Botrtyis cinerea (Bc); Table 4a): > 50 µg/mL; IC90 [3, 11]: > 50 µg/mL; IC90 ([4]; Table 4a): > 50 µg/mL |
| COc1ccccc1[C@H](Cn1c(=O)n(C(C)(C)C(=O)O)c(=O)c2c(C)c(-n3cccn3)sc21)OCCC#N [Compound I-79] | 3 to 10 | 0.6 to 3 | 0.4 (≈ 0.744 µM) | 0.08 (≈ 0.149 µM) | 0.4 (≈ 0.744 µM) | 0.4 (≈ 0.744 µM) | 0.08 (≈ 0.149 µM) | 10 (≈ 18.6 µM) | > 50 | 0.4 (≈ 0.744 µM) | – |

Source: patent publication US10941158B2, “Pyrazole ACC inhibitors and uses thereof” (Gilead Apollo, LLC, priority 2015, dated 2021)
